Converted amounts (≈) assume the structure as drawn. Like-named read-outs stand apart in the source and are kept apart here.
Legend:
Fusarium oxysporum = assay: Antifungal MIC, broth dilution method; format: cell-based; settings: 72 h, means from three parallel experiments; for MIC: Fusarium oxysporum, read-out: minimum inhibitory concentration (MIC) against Fusarium oxysporum
Method: (§1) The bioactivity test screened the following four phytopathogenic microorganisms: Fusarium oxysporum; Penicillium italicum; Banana Colletotrichum gloeosporioides; and Colletrichum litchi Trag. The minimum inhibitory concentration (MIC) was determined using the broth dilution method, with a minor modification. Fungi were removed from the refrigerator and cultured dynamically at a constant temperature in Potato Dextrose Broth at room temperature for 72 h. The fungal liquid was diluted with broth to 0.5 McFarland turbidity. The sample was prepared into an initial solution of 1 mg/mL with dimethyl sulfoxide (DMSO), and the concentrations of the 1st to 12th wells of the 96-well plate sample group were made by the double dilution method (mg/mL): 1, 0.5, 0.25, 0.125, and 0.0625. Each plate also contained a positive control (ciprofloxacin or carbendazim), as well as a sterile control and growth control (containing broth and fungal liquid, no compound). The plates were incubated at 35 °C for 72 h. The use of 10 μL of a solution with a concentration of 11 mg/mL of Esazurin added to each well of a 96-well plate, followed by incubation at 37 °C for 3 h, allowed for the observation of color changes to determine the minimum inhibitory concentration (MIC) values.

[1] = test system: Banana Colletotrichum gloeosporioides; assay: Antifungal MIC, broth dilution method; format: cell-based; settings: 72 h, means from three parallel experiments; for MIC: Colletotrichum gloeosporioides, read-out: minimum inhibitory concentration (MIC) against Banana Colletotrichum gloeosporioides
Method: as §1

Penicillium italicum = assay: Antifungal MIC, broth dilution method; format: cell-based; settings: 72 h, means from three parallel experiments; for MIC: Penicillium italicum, read-out: minimum inhibitory concentration (MIC) against Penicillium italicum
Method: as §1

Colletrichum litchi Tra = assay: Antifungal MIC, broth dilution method; format: cell-based, Colletrichum litchi Trag; settings: 72 h, means from three parallel experiments; for MIC: read-out: minimum inhibitory concentration (MIC) against Colletrichum litchi Tra
Method: as §1

[2] = test system: Staphylococcus aureus (ATCC 12598); assay: Antibacterial MIC, broth dilution method; format: cell-based; settings: mean from three parallel experiments; for MIC: Staphylococcus aureus, ATCC12598, 24 h, read-out: minimum inhibitory concentration (MIC) against Staphylococcus aureus
Method: (§2) The bioactivity test screened the following four human pathogenic microorganisms: Pseudomonas aeruginosa (ATCC 9027); Salmonella typhimurium (ATCC 6539); Escherichia coli (ATCC 25922); and Staphylococcus aureus (ATCC 12598). The minimum inhibitory concentration was determined using the broth dilution method, with a minor modification. Bacteria were removed from the refrigerator and cultured dynamically at a constant temperature in a Mueller–Hinton Broth at room temperature for 24 h. The bacterial liquid was diluted with broth to 0.5 McFarland turbidity. The sample was prepared into an initial solution of 1 mg/mL with dimethyl sulfoxide (DMSO), and the concentrations of the 1st to 12th wells of the 96-well plate sample group were made by the double dilution method (mg/mL): 1, 0.5, 0.25, 0.125, and 0.0625. Each plate also contained a positive control (ciprofloxacin or carbendazim), as well as a sterile control and growth control (containing broth and bacterial liquid, no compound). The plates were incubated at 35 °C for 24 h. The use of 10 μL of a solution with a concentration of 11 mg/mL of Esazurin added to each well of a 96-well plate, followed by incubation at 37 °C for 3 h, allowed for the observation of color changes to determine the minimum inhibitory concentration (MIC) values.

[3] = test system: Escherichia coli (ATCC 25922); assay: Antibacterial MIC, broth dilution method; format: cell-based; settings: mean from three parallel experiments; for MIC: Escherichia coli, ATCC25922, 24 h, read-out: minimum inhibitory concentration (MIC) against Escherichia coli
Method: as §2

[4] = test system: Salmonella typhimurium (ATCC 6539); assay: Antibacterial MIC, broth dilution method; format: cell-based; settings: 24 h, mean from three parallel experiments; for MIC: Salmonella enterica, read-out: minimum inhibitory concentration (MIC) against Salmonella typhimurium
Method: as §2

[5] = test system: Pseudomonas aeruginosa (ATCC 9027); assay: Antibacterial MIC, broth dilution method; format: cell-based; settings: mean from three parallel experiments; for MIC: Pseudomonas aeruginosa, ATCC9027, 24 h, read-out: minimum inhibitory concentration (MIC) against Pseudomonas aeruginosa
Method: as §2

DPPH scavenging assay = settings: 30 min at 37 °C in the dark, read-out: Radical Scavenging Activity (IC50)
Method: The assay for scavenging 1,1-Diphenyl-2-picrylhydrazyl radical 2,2-Diphenyl-1-(2,4,6-trinitrophenyl)hydrazyl (DPPH free radicals) was conducted following a previously established modified protocol. The DPPH was dissolved in ethanol to prepare a 0.5 mmol/L DPPH ethanolic solution (10 mL), which was stored away from light. Subsequently, 100 μL of the DPPH solution was added to each well of a 96-well plate. The sample was prepared into an initial solution of 200 μM with ethanol, and the concentrations of the 1st to 12th wells of the 96-well plate sample group were made by the double dilution method (μM): 200,100, 50, 25, and 12.5 μM. The reaction was monitored by measuring the absorbance at 490 nm using a microplate reader (iMark, Bio-Rad, Hercules, CA, USA) after shaking the reaction for 30 min at 37 °C in the dark. The DPPH radical scavenging activity was determined by a comparison of the absorbance of the samples and a blank control. Vitamin C was used as a positive control at the same concentration as the other samples.

[6] = MTT cell viability (cytotoxicity); format: cell-based; settings: mouse; for IC50 at 24 h: MTT assay, read-out: cytotoxic effects on RAW 264.7 cells (IC50)
Method: (§3) The MTT method was utilized to assess cell viability. RAW 264.7 cells, at a concentration of 5 × 10^5 cells/mL, were plated in 96-well plates and exposed to lipopolysaccharide (LPS, at 1 μg/mL) in the presence or absence of the test compounds for a duration of 24 h. Following this, 100 μL of a 2 mg/mL MTT solution was introduced into each well, and after a 4 h incubation, the resulting formazan precipitates were dissolved in 100 μL of DMSO. The optical density was then determined at 490 nm using a microplate reader (Multiskan GO, Thermo Scientific, Waltham, MA, USA). The results were presented as the average percentage of cell viability relative to the untreated control group.

[7] = test system: NO production in LPS-stimulated RAW 264.7 cells; assay: Inhibition of LPS-stimulated NO production, Griess assay; format: cell-based; settings: LPS (1 μg/mL)-stimulated RAW 264.7 cells
Method: Compounds 1–2 were evaluated for their inhibitory effects on LPS-stimulated NO production in RAW 264.7 cells using the Griess assay. The cell line RAW 264.7, obtained from the Cell Bank of the Chinese Academy of Sciences (CBCAS) in Shanghai, China, was propagated in Dulbecco’s Modified Eagle Medium (DMEM) supplemented with 10% Fetal Bovine Serum (FBS). In the logarithmic growth phase, the cells were digested with trypsin and inoculated into 96-well plates (1 × 10^5/well). After being cultured at 37 °C with 5% CO2 for 12 h, the cells were treated with DMEM containing different concentrations of compounds (0, 3.125, 6.25, 12.5, 25, 50, and 100 μM). Two hours later, the cells were treated with LPS at a concentration of […] (1 μg/mL) and incubated under standard cell culture conditions for a period of 24 h. Fifty microliters of cell supernatant was mixed with an equal volume of Griess reagent (1% anhydrous p-aminobenzene sulfonic acid and 0.1% N-1-naphthalene ethylenediamine hydrochloride in 5% concentrated phosphoric acid). Absorbance was measured with a microplate reader at 540 nm. The IC50 values were calculated using the SPSS 25.0 statistical software analysis package based on the inhibition rate of each group.

RAW 264.7 cells = assay: MTT cell viability (cytotoxicity); format: cell-based; settings: RAW 264.7 cells
Method: as §3

[8] = RAW 264.7 cells, MTT, evaluated with cell viability at 50 μM, read-out: Cytotoxicity (CC50)

## COC(=O)Nc1nc2ccccc2[nH]1 [Carbendazim, reference compound]
Fusarium oxysporum
  MIC: < 30 µg/mL
[1]
  MIC: < 30 µg/mL
Penicillium italicum
  MIC: < 30 µg/mL
Colletrichum litchi Tra
  MIC: < 30 µg/mL

## O=c1[nH]c2ccccc2c(-c2ccccc2)c1O [Compound 4, 3-hydroxy-4-phenylquinolin-2(1H)-one]
[2]
  MIC: 1000 µg/mL (≈ 4210 µM)
[3]
  MIC: > 1000 µg/mL
[4]
  MIC: 1000 µg/mL (≈ 4210 µM)
[5]
  MIC: 500 µg/mL (≈ 2110 µM)
DPPH scavenging assay
  IC50: > 200 µM
Fusarium oxysporum
  MIC: 250 µg/mL (≈ 1050 µM)
[1]
  MIC: > 1000 µg/mL
Penicillium italicum
  MIC: 250 µg/mL (≈ 1050 µM)
Colletrichum litchi Tra
  MIC: 1000 µg/mL (≈ 4210 µM)
[6]; RAW 264.7 cells
  IC50 at 24 h: < 50 µM
[6]; [8]
  CC50 at 24 h: < 50 µM

## CCCCCCCCCCCCCCCC(=O)OC1=C([C@@H]2CCN(C(=O)CCCCCCCCCCCCCCC)C3=C2C(=O)O[C@@H]3C)C(=O)O[C@@H]1C [Compound 1a]
[2]
  MIC: > 1000 µg/mL
[3]
  MIC: > 1000 µg/mL
[4]
  MIC: 1000 µg/mL (≈ 1350 µM)
[5]
  MIC: 125 µg/mL (≈ 168 µM)
DPPH scavenging assay
  IC50: > 200 µM
Fusarium oxysporum
  MIC: 250 µg/mL (≈ 337 µM)
[1]
  MIC: > 1000 µg/mL
Penicillium italicum
  MIC: 125 µg/mL (≈ 168 µM)
Colletrichum litchi Tra
  MIC: 1000 µg/mL (≈ 1350 µM)
[6]; RAW 264.7 cells
  IC50 at 24 h: < 50 µM
[6]; [8]
  CC50 at 24 h: < 50 µM
other
  melting point: 76.6 to 77.2 °C

## COc1ccc2c(c1)c(CC(=O)O)c(C)n2C(=O)c1ccc(Cl)cc1 [Indomethacin, reference compound]
[7]; Mus musculus, RAW264.7, 24 h
  IC50: 35.8 ± 5.7 µM
[6]
  CC50 at 24 h: > 50 µM

## 3-hydroxy-4-(3-hydroxyphenyl)quinolin-2(1H)-one [Compound 3]
[2]; 24 h
  minimum inhibitory concentration (MIC) against Staphylococcus aureus: >1000 µg/mL
[3]; 24 h
  minimum inhibitory concentration (MIC) against Escherichia coli: 1000 µg/mL
[4]
  minimum inhibitory concentration (MIC) against Salmonella typhimurium: 1000 µg/mL
[5]; 24 h
  minimum inhibitory concentration (MIC) against Pseudomonas aeruginosa: 125 µg/mL
DPPH scavenging assay
  IC50: > 200 µM
Fusarium oxysporum
  minimum inhibitory concentration (MIC) against Fusarium oxysporum: 250 µg/mL
[1]
  minimum inhibitory concentration (MIC) against Banana Colletotrichum gloeosporioides: >1000 µg/mL
Penicillium italicum
  minimum inhibitory concentration (MIC) against Penicillium italicum: 500 µg/mL
Colletrichum litchi Tra
  minimum inhibitory concentration (MIC) against Colletrichum litchi Tra: 1000 µg/mL
RAW 264.7 cells; MTT assay, read-out: cytotoxic effects on RAW 264.7 cells (IC50)
  IC50: < 50 µM
RAW 264.7 cells; MTT, evaluated with cell viability at 50 μM
  CC50: < 50 µM

## CC1OC(=O)C(C2CCNC3=C2C(=O)OC3C)=C1O (stereo not shown) [Compound 1, penifuranone A]
[7]; 24 h
  IC50: 42.2 ± 2.26 µM
[7]; Mus musculus, RAW264.7, 24 h
  IC50: 42.2 µM
[2]
  MIC: > 1000 µg/mL
[3]
  MIC: 1000 µg/mL (≈ 3770 µM)
[4]
  MIC: 1000 µg/mL (≈ 3770 µM)
[5]
  MIC: 500 µg/mL (≈ 1880 µM)
DPPH scavenging assay
  IC50: 180 µM
Fusarium oxysporum
  MIC: 250 µg/mL (≈ 942 µM)
[1]
  MIC: > 1000 µg/mL
Penicillium italicum
  MIC: 250 µg/mL (≈ 942 µM)
Colletrichum litchi Tra
  MIC: 1000 µg/mL (≈ 3770 µM)
[6]; RAW 264.7 cells
  IC50 at 24 h: > 50 µM
[6]; [8]
  CC50 at 24 h: > 50 µM
other
  melting point: 156.7 to 158.2 °C

## O=C1O[C@H]([C@@H](O)CO)C(O)=C1O [Vitamin C, reference compound]
DPPH scavenging assay
  IC50: 68.4 µM

## C[C@@H]1C[C@H]2[C@@H]3CCC4=CC(=O)C=C[C@]4(C)[C@@]3(F)[C@@H](O)C[C@]2(C)[C@@]1(O)C(=O)CO [Dexamethasone, reference compound]
[7]; Mus musculus, RAW264.7, 24 h
  IC50: 58.2 ± 1.74 µM
[6]; [8]
  CC50 at 24 h: > 50 µM

## O=C(O)c1cn(C2CC2)c2cc(N3CCNCC3)c(F)cc2c1=O [Ciprofloxacin, reference compound]
[2]
  MIC: < 30 µg/mL
[3]
  MIC: < 30 µg/mL
[4]
  MIC: < 30 µg/mL
[5]
  MIC: < 30 µg/mL

## C[C@H]1OC(=O)C(CC2=C(O)[C@@H](C)OC2=O)=C1O [Compound 2, (+) - (5R, 5′R) - 3,3′-methylenebistetronic acid]
[7]; Mus musculus, RAW264.7, 24 h
  IC50: 37 ± 0.88 µM
[2]
  MIC: > 1000 µg/mL
[3]
  MIC: 1000 µg/mL (≈ 4160 µM)
[4]
  MIC: 1000 µg/mL (≈ 4160 µM)
[5]
  MIC: 500 µg/mL (≈ 2080 µM)
DPPH scavenging assay
  IC50: 120 µM
Fusarium oxysporum
  MIC: 250 µg/mL (≈ 1040 µM)
[1]
  MIC: > 1000 µg/mL
Penicillium italicum
  MIC: 250 µg/mL (≈ 1040 µM)
Colletrichum litchi Tra
  MIC: 500 µg/mL (≈ 2080 µM)
[6]; RAW 264.7 cells
  IC50 at 24 h: > 50 µM
[6]; [8]
  CC50 at 24 h: > 50 µM

— publication PMC11084256, “Penifuranone A: A Novel Alkaloid from the Mangrove Endophytic Fungus Penicillium crustosum SCNU-F0006” (International Journal of Molecular Sciences, 2024)
